This is an account of results in patent publication US20180230160A1, “2-AMINO-7A-PHENYL-3,4,4A,5,7,7A-HEXAHYDROFURO[3,4-B]PYRIDINES AS BACE1 INHIBITORS” (H. Lundbeck A/S, priority 2015, published 2018).

In one series the test system is P-gp (MDR1). Briefly: MDCK-MDR1 assay (permeability, efflux ratio). It counts as in vitro ADME. As to conditions: dog, Papp BA/Papp AB, 60-minute incubation. The procedure: The permeability of the test compounds was assessed in MDCK-MDR1 cells that were cultured to confluency (4-6 days) in a 96 transwell plate. Test compounds were diluted with the transport buffer (HBSS+1% BSA) to a concentration of 0.5 μM and applied to the apical or basolateral side of the cell monolayer. Permeation of the test compounds from A to B direction or B to A direction was determined in triplicate over a 60-minute incubation time at 37° C. and 5% CO2 with a relative humidity of 95%. Test compounds were quantified by LC-MS/MS analysis based on the peaks area ratios of analyte/IS in both the receiver and donor wells of the transwell plate. The apparent permeability coefficient Papp (cm/s) was calculated using the equation: […]
Where dCr/dt is the cumulative concentration of compound in the receiver chamber as a function of time (μM/s); Vr is the solution volume in the receiver chamber (0.05 mL on the apical side; 0.25 mL on the basolateral side); A is the surface area for the transport, i.e. 0.0804 cm^2 for the area of the monolayer; CO is the initial concentration in the donor chamber (μM).

For series [1], the target named is T1, human BACE1 (Homo sapiens, UniProt P56817). Briefly: BACE1 efficacy assay (FRET-based, commercial BACE1 kit). The format is biochemical. Details: purchased Life Technologies P2985. As to conditions: 10 μM test compound. The method, then:
The efficacy assay was performed as a FRET-based assay using a commercially available BACE1 kit (Life Technologies, P2985). 2 μl test compound at 10 μM (final concentration) and 15 μl BACE1 enzyme from the kit (final concentration 3 nM) were preincubated for 15 minutes at room temperature before addition of 15 μl of substrate from the kit (250 nM final concentration) and incubated for additional 90 minutes at room temperature. The assay plate was subsequently read in a Pherastar (Ex540/Em590). The enzyme activity observed in presence of test compound were normalized to the enzyme activity observed in presence of buffer and 10 μM (final concentration) of the high affinity BACE1 reference inhibitor (S)-6-[3-Chloro-5-(5-prop-1-ynyl-pyridin-3-yl)-thiophen-2-yl]-2-imino-3,6-dimethyl-tetrahydropyrimidin-4-one, respectively. The efficacy of the test compounds was evaluated at 10 μM (final concentration) and defined as the percent inhibition of the enzyme activity using the equation % inhibition=100%−normalized enzyme activity in percent.

Series [2] concerns the target T1, human BACE1. Briefly: BACE1 binding assay (SPA-based radioligand binding). Details: biotin (biotinylated form); made in house; host or cells: Freestyle HEK293 cells. As to conditions: pH 4.5, 10 nM radioligand, Ki=IC50/(1+L/Kd). The method, then: The binding assay was performed as SPA-based assay using a biotinylated form of human BACE1 recombinantly expressed and subsequently purified from Freestyle HEK293 cells. The binding assay was run in a 50 mM sodium acetate buffer, pH 4.5 containing 50 mM NaCl and 0.03% Tween-20 in white clear bottom 384 plates (Corning #3653). 10 nM (final concentration) radioligand ([^3H]—N-((1S,2R)-1-benzyl-3-cyclopropylamino-2-hydroxy-propyl)-5-(methanesulfonyl-methyl-amino)-N—((R)-1-phenyl-ethyl)-isophthalamide) (TRQ11569 purchased from GE Healthcare) was mixed with test compound at a given concentration, 6 nM (final concentration) human BACE1 and 25 μg Streptavidin coated PVT core SPA beads (RPNQ0007, GE Healthcare Life Sciences) in a total volume of 40 μl. Several concentrations of each test compound were tested in the assay for […] determination. The plates were incubated for one hour at room temperature and counted in a Wallac Trilux counter. Total and non-specific binding were determined using buffer and 1 μM (final concentration) of the high affinity BACE1 reference inhibitor (S)-6-[3-chloro-5-(5-prop-1-ynyl-pyridin-3-yl)-thiophen-2-yl]-2-imino-3,6-dimethyl-tetrahydro-pyrimidin-4-one, respectively. For each test compound, a 1050 value (the concentration mediating 50% inhibition of the specific binding of the radioligand) was determined from concentration-response curve and used to calculate the Ki from the equation Ki=IC50/(1+L/Kd), where L and Kd are the final concentration of the radioligand used in the assay and the dissociation constant of the radioligand, respectively. The Kd of the radioligand was determined from saturation binding experiments.

For another series, the system named is Aβ40 peptide. The series can be described thus: Assessment of Aβ peptide levels in rat brain and plasma following BACE1 inhibition (Aβ40 ELISA). The format is in vivo. The settings on record: 3 hours post dose, vs vehicle. The method, then:
Assessment of Aβ Peptide Levels in Rat Brain and Plasma Following BACE1 Inhibition. Animals.
(§1) Young adult Male Sprague Dawley rats of approximately 250 g weight were purchased from Charles River and received 0-30 mg/kg of vehicle (10% HP betaCD+1M MeSO4, pH 2.5) or test compounds (dissolved in vehicle) only by oral gavage (p.o). The compounds are dosed at a volume of 5 ml/kg. Cohorts of 5-10 animals were established for each treatment condition.
(§2) At T=180 minutes after initial dosing the animals were stunned and decapitated with a guillotine. Trunk-blood was sampled in EDTA coated tubes after decapitation of the animal. The blood was centrifuged at 2200G at 4° C. for 15 minutes and the plasma was collected and frozen at −80° C. The blood was aliquoted for Aβ ELISA and DMPK analysis. Immediately following sacrifice, the brain was extracted and split into 2 halves. The right hemibrains were snap frozen on dry ice and stored at −80° C. The left half was dissected; with the front forebrain taken for Aβ ELISA and the remainder used for DMPK analysis. These samples were also snap frozen on dry ice and stored at −80° C. until use for analysis.
The cortex samples were thawed slightly on wet ice before they were homogenized with a small volume dispersing instrument (T10 basic ULTRA-TURRAX®) which was set at speed 5 for approximately 5-7 sec. The tissue was processed in a 10 times volume of the weight, for example 100 mg of tissue was homogenized in 1000 μL of Homogenization buffer. Homogenization buffer: 50 ml Milli Q water+50 nM NaCl+0.2% Diethylamin (DEA)+1 tablet of Complete Protease inhibitor cocktail+1 nM 4-(2-aminoethyl) benzenesulfonyl fluoride hydrochloride irreversible serine protease inhibitor (AEBSF).
After homogenization 450 μL aliquots of the samples are collected into a 1.5 ml Eppendorf tube and placed on wet ice, 0.5% NP-40 (50 ul) was added to all samples and then they were incubated on ice for 30 min. After which all samples were sonicated using an Ultrasonic homogenizer with 20 kHz homogeneous sound (SONOPLUS HD2070, Bandelin Electronic) 10 pulse set at 12-13% power to extract all the Aβ species. The samples were then centrifuged (Ole Dich 157 MPRF Micro centrifuge) at 20000G for 20 minutes at 4° C. After centrifugation 285 μL of the supernatant was pipetted into 600 μL microtubes tubes and neutralized with 15 μL of 1M Tris-HCL buffer.
WAKO 294-62501 Human/Rat Abeta amyloid (40) kit was used for all ELISA analyses. 30 μL plasma samples or 30 μL of the cortex supernatants generated as described above were placed in 600 μL microtubes tubes on wet ice. To this 30 μL of 8M urea (AppliChem A1049, 9025) was added to generate a 2-fold dilution. Both plasma and cortex supernatants were incubated on ice for 30 min. Standard rows were prepared from the standard peptide stock provided in the kit and standard diluent containing 1.6M urea (200 μL 8M urea+800 μL of standard diluent) and 0.8M urea (400 μL 8M Urea+3600 μL Standard diluent). A serial 2-fold dilution of Aβ40 from 100 pmol/ml to 0 pmol/L was prepared for the assay.
After incubation with urea, all samples were further diluted by addition of 5 times standard diluent from the Kit. This was done by adding 240 μL Standard Diluent to 60 μL sample/urea mixture, which was then mixed well. 100 μL of each diluted sample was pipetted into designated wells of the ELISA plate in duplicates. The plate was then covered and incubated overnight at 4° C. The following day, the ELISA kit was brought to room temperature before use. The incubated plate was washed 5 times with the 20× washing solution diluted in Milli Q water. 100 μL HRP-conjugate was applied to each well, and the plate was covered and incubates at 4° C. for 1 hr. The wash was repeated again for 5 times. 100 μL 3,3′,5,5′-Tetramethylbenzidine (TMB) solution was applied to each well and the plate was covered and incubated in the dark at room temperature for 30 minutes. […]
(An ELISA detects its analyte on a solid surface through an enzyme-linked reagent.)

Series [3] can be described thus: Compound exposure in rat brain and plasma after oral dosing (DMPK analysis). The format is in vivo. As to conditions: male, Sprague Dawley, 3 hours post dose; for concentration at 3 h: read-out: Exp (exposure); for Kp at 3 h: brain/plasma, read-out: Brain/Plasma ratio. The procedure: as §1, §2
The results of the administration of representative Compounds of Examples 1, 2, 5, […], of brain and plasma samples collected at 3 hours post dose and then following exposures, as described above, are tabulated below.

By efflux ratio is commonly meant the permeability from basolateral to apical divided by that in the opposite direction, in the common usage. A word on the inhibition: it is the relative decrease from the control value, in per cent. As usually defined, the pKi is the negative decadic logarithm of the Ki, by convention in mol/L.

The structures appear in SMILES notation. pKi: −log10 of the molar value. Where two headings read alike, the source gives them in different places.

T1 sequence (P56817 46-501): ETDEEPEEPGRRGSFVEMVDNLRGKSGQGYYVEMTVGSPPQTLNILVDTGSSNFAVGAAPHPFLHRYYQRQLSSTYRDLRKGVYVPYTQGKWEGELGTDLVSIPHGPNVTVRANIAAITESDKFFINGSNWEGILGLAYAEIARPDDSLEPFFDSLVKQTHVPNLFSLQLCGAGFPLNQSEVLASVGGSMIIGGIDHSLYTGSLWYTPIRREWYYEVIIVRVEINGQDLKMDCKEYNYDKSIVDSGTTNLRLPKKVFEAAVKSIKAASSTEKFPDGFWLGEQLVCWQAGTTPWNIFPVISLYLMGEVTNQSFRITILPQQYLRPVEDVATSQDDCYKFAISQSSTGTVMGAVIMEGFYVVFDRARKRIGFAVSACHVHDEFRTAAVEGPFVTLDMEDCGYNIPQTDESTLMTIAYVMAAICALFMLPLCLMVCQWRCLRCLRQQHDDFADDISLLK

As for `COc1ccc(C(=O)Nc2ccc(F)c([C@]34COC[C@H]3C[C@](F)(CF)C(N)=N4)c2)nc1` [Example 15, N-(3-((3R,4aS,7aS)-2-amino-3-fluoro-3-(fluoromethyl)-3,4,4a,5-tetrahydrofuro[3,4-b]pyridin-7a-yl)-4-fluorophenyl)-5-methoxypicolinamide], the efflux ratio at 60 min, 0.5 μM in the series with P-gp (MDR1) came out at 1.19. The inhibition at 10 µM at human BACE1 [1] is 111%. Moreover, the pKi on human BACE1 [2] is 7.19.
Take `COc1cnc(C(=O)Nc2cc(F)c(F)c([C@]34COC[C@H]3C[C@@](F)(CF)C(N)=N4)c2)cn1` [Example 24, N-[3-[(3S,4aS,7aS)-2-amino-3-fluoro-3-(fluoromethyl)-4,4a,5,7-tetrahydrofuro[3,4-b]pyridin-7a-yl]-4,5-difluoro-phenyl]-5-methoxy-pyrazine-2-carboxamide]: in the series on P-gp (MDR1), the efflux ratio at 60 min, 0.5 μM is 0.82. Also, the inhibition at 10 µM against human BACE1 [1] was determined as 103%. Moreover, the pKi at human BACE1 [2] is 6.89.
As for `COc1ccc(C(=O)Nc2cc(F)c(F)c([C@]34COC[C@H]3C[C@](F)(CF)C(N)=N4)c2)nc1` [Example 17, N-[3-[(3R,4aS,7aS)-2-amino-3-fluoro-3-(fluoromethyl)-4,4a,5,7-tetrahydrofuro[3,4-b]pyridin-7a-yl]-4,5-difluoro-phenyl]-5-methoxy-pyridine-2-carboxamide], in the series with P-gp (MDR1), the efflux ratio at 60 min, 0.5 μM was determined as 1.25. Besides, the inhibition at 10 µM at human BACE1 [1] came out at 105%. Besides, the pKi at human BACE1 [2] was 7.00.
Taken in the same sequence, the figures for `COc1ccc(C(=O)Nc2ccc(F)c([C@]34COC[C@H]3C[C@@](F)(CF)C(N)=N4)c2)nc1` [Example 21, N-(3-((3S,4aS,7aS)-2-amino-3-fluoro-3-(fluoromethyl)-3,4,4a,5,7,7a-hexahydrofuro[3,4-b]pyridin-7a-yl)-4-fluorophenyl)-5-methoxypicolinamide] were 0.61, 103% and 7.26.
`COc1cnc(C(=O)Nc2ccc(F)c([C@]34COC[C@@]3(F)C[C@](C)(F)C(N)=N4)c2)cn1` [Example 5, N-(3-((3S,4aR,7aS)-2-amino-3,4a-difluoro-3-methyl-3,4,4a,5,7,7a-hexahydrofuro[3,4-b]pyridin-7a-yl)-4-fluorophenyl)-5-methoxypyrazine-2-carboxamide]: the Aβ40 reduction with Aβ40 peptide (Brain, 10 mg/kg p.o.) was found to be 40%; with Aβ40 peptide (Brain, 30 mg/kg p.o.), 47%; with Aβ40 peptide (Plasma, 10 mg/kg p.o.) it was 41%; with Aβ40 peptide (Plasma, 30 mg/kg p.o.), 45%. In addition, the concentration at 3 h in series [3] (Brain, 10 mg/kg p.o.) was found to be 204 ng/g; in series [3] (Brain, 30 mg/kg p.o.), 695 ng/g; in series [3] (Plasma, 10 mg/kg p.o.), 174 ng/g; in series [3] (Plasma, 30 mg/kg p.o.), 598 ng/g. Moreover, the Kp at 3 h in series [3] (10 mg/kg p.o.) was determined as 1.17; in series [3] (30 mg/kg p.o.), 1.16. Further, the efflux ratio at 60 min, 0.5 μM in the series on P-gp (MDR1) came to 0.91. On human BACE1 [2], this compound showed a negative-log Ki (pKi) of 7.77.
`C[C@]1(F)C[C@]2(F)COC[C@]2(c2cc(NC(=O)c3ccc(F)cn3)ccc2F)N=C1N` [Example 2, N-(3-((3S,4aR,7aS)-2-amino-3,4a-difluoro-3-methyl-3,4,4a,5,7,7a-hexahydrofuro[3,4-b]pyridin-7a-yl)-4-fluorophenyl)-5-fluoropicolinamide]: the Aβ40 reduction with Aβ40 peptide (Brain, 10 mg/kg p.o.) worked out at 25%; with Aβ40 peptide (Brain, 30 mg/kg p.o.), 24%; in the series on Aβ40 peptide (Plasma, 10 mg/kg p.o.), 48%; with Aβ40 peptide (Plasma, 30 mg/kg p.o.), 47%. Further, the concentration at 3 h stood at 37 ng/g in series [3] (Brain, 10 mg/kg p.o.); 136 ng/g in series [3] (Brain, 30 mg/kg p.o.); 69 ng/g in series [3] (Plasma, 10 mg/kg p.o.); 244 ng/g in series [3] (Plasma, 30 mg/kg p.o.). In addition, the Kp at 3 h was 0.54 in series [3] (10 mg/kg p.o.) and 0.56 in series [3] (30 mg/kg p.o.). Moreover, the efflux ratio at 60 min, 0.5 μM in the series on P-gp (MDR1) came to 1.27. Besides, on human BACE1 [2], the pKi was 7.51.
